# Experimental data reported in paper PMC9654711, “Neuroprotective Action of Coumarin Derivatives through Activation of TRKB-CREB-BDNF Pathway and Reduction of Caspase Activity in Neuronal Cells Expressing Pro-Aggregated Tau Protein” (International Journal of Molecular Sciences, 2022).
# Key:
# [1] = DPPH free radical-scavenging assay; conditions: compounds tested 10–80 μM; DPPH 100 µM; linear interpolation
# Description: The potential free radical-scavenging activity of test compounds was assayed using stable free radical 1,1-diphenyl-2-picrylhydrazyl (DPPH) (Sigma-Aldrich). Briefly, kaempferol, LM-031 or LMDS-1 to -4 (10–80 µM) was added to DPPH (100 µM in 99% ethanol). The solution was vortexed for 15 s, left for 30 min at room temperature, the mixture was transferred to a 96-well UV-transparent microplate and the absorbance at 517 nm was measured using a Multiskan^TM GO microplate spectrophotometer (Thermo Fisher Scientific, Waltham, MA, USA). Radical-scavenging activity was calculated using the equation: 1 − (absorbance of sample/absorbance of control) × 100%, and EC50 estimated using the linear interpolation method.
# [2] = High-content analysis of ΔK280 tauRD-DsRed fluorescence and cell number (folding reporter); type: cell-based, human; conditions: human; induced ΔK280 tauRD-DsRed SH-SY5Y; compounds 2.5–10 µM; read-out: IC50 cytotoxicity based on the cell number analyzed
# Description: On day 1, ∆K280 tauRD-DsRed SH-SY5Y cells were seeded in a 96-well plate (3 × 10^4/well), with retinoic acid (10 µM; Sigma-Aldrich) added to induce neuronal differentiation. […] […] For ROS measurement, dichloro-dihydro-fluorescein diacetate (DCFH-DA, 10 µM; Invitrogen, Carlsbad, CA, USA) was added to the cells on day 8 and incubated at 37 °C for 30 min.
# [3] = target: T1, TRKB-ECD-His (extracellular domain of TRKB) (Homo sapiens, UniProt Q16620); assay: Tryptophan fluorescence quenching assay; conditions: TRKB-ECD-His 50 nM in PBS; excitation 295 nm, emission 330 nm; compounds 0–1000 nM; read-out: TRKB-ECD binding affinity (KD)
# T1 construct: extracellular domain of TRKB (TRKB-ECD) (residues 32–429, XP_016870240); Saccharomyces cerevisiae α-factor secretion signal (N, cleaved yes); made in house; host or cells: Pichia pastoris
# Excerpt: The cDNA fragment containing the full-length extracellular domain of TRKB (TRKB-ECD) (residues 32–429, XP_016870240) was amplified from pDONR223-NTRK2 plasmid (Addgene, Watertown, MA, USA) using forward primer 5′-ctcgagaaaagagaggctgaagctTGTCCCACGTCCTGAAATG (XhoI site and Kex2 cleavage of the signal sequence in lowercase letters) and reverse primer 5′-gtcgac[…] (SalI site in lowercase letters). After cloning and sequencing, the TRKB-ECD fragment was excised with XhoI and SalI and subcloned into Pichia expression vector pGAPZα A (Invitrogen). The AvrII-linearized plasmid was then transformed into Pichia pastoris, and stable transformants selected and cultured at 30 °C for 4 days for constitutive expression of recombinant His-tagged TRKB-ECD. The secreted TRKB-ECD-His in cultured medium was purified using Ni-NTA His•Bind resins (Novagen, Madison, WI 53719, USA) according to the supplier’s instructions. Protein purity was examined by Coomassie blue staining of SDS-polyacrylamide gel as well as immunoblotting using anti-His (1:2000; Acris, Herford, Germany) and anti-TRKB (1:1000; Cell Signaling) antibodies.
# The interaction between TRKB-ECD-His and LM-031, LMDS-1 or LMDS-2 was determined by tryptophan fluorescence titration. 7,8-DHF (Sigma-Aldrich) was included as a positive control. Tryptophan fluorescence spectra of TRKB-ECD-His (50 nM in PBS) were obtained before and after titration with different concentrations of test compounds (0–1000 nM). The fluorescent quenching was conducted in a cuvette with a 1 cm path length cell by an F-7000 fluorescence spectrophotometer (Hitachi, Tokyo, Japan) at room temperature. The intrinsic fluorescence spectra of TRKB were recorded with excitation wavelength set at 295 nm and emission wavelength in the range 300–400 nm. The dissociation constant (KD) of 7,8-DHF, LM-031, LMDS-1 and LMDS-2 to TRKB was determined by fitting the normalized fluorescence intensity at 330 nm under different concentrations of test compounds using the equation derived from Liu et al.:KD = [P]T (f − 1) + [D]T (1/f − 1), where f is the fractional change, and [P]Tand [D]Tare the total concentration of TRKB-ECD-His protein and test compound, respectively.
# [4] = test system: ΔK280 tauRD-DsRed SH-SY5Y cells; assay: Neurite outgrowth in cells infected with TRKB-specific or scrambled shRNA; type: cell-based, human; conditions: scrambled shRNA; 10 µM
# Description: As described, ∆K280 tauRD-DsRed SH-SY5Y cells were seeded in a 24-well plate (5 × 10^4/well) with retinoic acid addition on day 1, treated with tested compounds (10 µM) and ∆K280 tauRD-DsRed expression was induced with doxycycline (2 μg/mL) on day 2. On day 8, after being fixed in 4% paraformaldehyde for 15 min, permeabilized in 0.1% Triton X-100 for 10 min and blocked in 3% bovine serum albumin (BSA) for 20 min, the cells were stained with TUBB3 (neuronal class III β-tubulin) primary antibody (1:1000; BioLegend, San Diego, CA, USA) at 4 °C overnight, followed by goat anti-rabbit Alexa Fluor® 555 secondary antibody (1:1000; Molecular probes) at room temperature for 2 h, with 4′-6-diamidino-2-phenylindole (DAPI, 0.1 µg/mL; Sigma-Aldrich) included for nuclei staining. Neuronal images were captured using the high-content analysis system as described. Neurite total length (μm), processes (primary neurite extensions projecting directly from the cell body) and branching (points at which primary neurites bifurcated) were analyzed using Neurite Outgrowth Application Module (MetaXpress; Molecular Devices). Around 5000 cells were analyzed in each of three independent experiments for each sample.
# Lentiviral short hairpin RNA (shRNA) targeting TRKB (TRCN0000002243, TRCN0000002245 and TRCN0000002246) and a negative control scrambled (TRC2.Void, ASN000001) from National RNAi Core Facility, IMB/GRC, Academia Sinica, Taipei, Taiwan were applied to knock down TRKB expression in ∆K280 tauRD-DsRed SH-SY5Y cells. On day 1, cells were plated on 6-well (for protein analysis) or 24-well (for neurite outgrowth analysis) plates in the presence of retinoic acid as described. On day 2, the cells were infected with lentivirus (multiplicity of infection of 3 for each shRNA) in medium containing polybrene (8 µg/mL; Sigma-Aldrich) to increase the efficiency of viral infection. […] On day 9, the cells were collected for TRKB protein analysis or analyzed for neurite outgrowth as described.
# T1 sequence (Q16620 32-429): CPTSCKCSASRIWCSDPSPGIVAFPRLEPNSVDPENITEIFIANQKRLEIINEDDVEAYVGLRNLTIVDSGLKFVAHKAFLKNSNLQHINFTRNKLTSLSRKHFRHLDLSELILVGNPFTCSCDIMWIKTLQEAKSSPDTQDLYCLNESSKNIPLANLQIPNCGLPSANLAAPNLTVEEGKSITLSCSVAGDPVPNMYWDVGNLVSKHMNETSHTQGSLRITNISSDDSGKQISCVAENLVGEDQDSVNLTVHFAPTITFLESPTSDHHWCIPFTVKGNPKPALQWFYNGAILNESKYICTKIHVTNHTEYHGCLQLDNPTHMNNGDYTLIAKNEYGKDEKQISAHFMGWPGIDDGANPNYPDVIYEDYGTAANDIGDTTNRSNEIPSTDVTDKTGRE
EC50 [1] [µM],Kd [3] [µM],Compound,IC50 at 6 days [2] [µM],Neurite branching [4]
122,0.008 ± 0.017,CCOc1ccc2cc(C(=O)c3ccccc3)c(=O)oc2c1 [LMDS-1],25,1.05–1.07
132,0.0065 ± 0.0066,O=C(c1ccccc1)c1cc2ccc(O)cc2oc1=O [LMDS-2],24,1.05–1.07
93,0.0127 ± 0.0028,"O=C(c1ccccc1)c1cc2c(O)cccc2oc1=O [LM-031, 3-benzoyl-5-hydroxychromen-2-one]",43,1.05–1.07
